Inhibition of growth data for 22 compounds are collected here from ChEMBL document CHEMBL3046381, “Synthesis and Fungicidal Activity of New Six-membered Cyclic Phosphates” (1995).

What all share (assay type): functional
Experiment [1] concerns Athelia rolfsii. Put plainly: Growth inhibition of Athelia rolfsii at 1000 ppm by agar dilution method. As to conditions: Agroathelia rolfsii; read-out: GI. Background: Agar dilution tests growth on a series of plates holding different concentrations.
Experiment [2] has as its system Pythium. Put plainly: Growth inhibition of Pythium sp. at 1000 ppm by agar dilution method. Particulars: read-out: GI.
The test system of experiment [3] is Athelia rolfsii. Put plainly: Growth inhibition of Athelia rolfsii at 100 ppm by agar dilution method. As to conditions: Agroathelia rolfsii; read-out: GI.
For experiment [4], the system named is Pythium. Kind of experiment: Growth inhibition of Pythium sp. at 100 ppm by agar dilution method. As to conditions: read-out: GI.
In experiment [5] the test system is Athelia rolfsii. Kind of experiment: Growth inhibition of Athelia rolfsii at 50 ppm by agar dilution method. Particulars: Agroathelia rolfsii; read-out: GI.
The test system of experiment [6] is Pythium. Kind of experiment: Growth inhibition of Pythium sp. at 10 ppm by agar dilution method. As to conditions: read-out: GI.
Experiment [7] deals with Athelia rolfsii. Kind of experiment: Growth inhibition of Athelia rolfsii at 10 ppm by agar dilution method. As to conditions: Agroathelia rolfsii; read-out: GI.
For experiment [8], the system named is Pythium. Kind of experiment: Growth inhibition of Pythium sp. at 50 ppm by agar dilution method. As to conditions: read-out: GI.

`CC(C)c1ccc2c(c1)COP(=S)(OCCc1ccccc1)O2` (stereo not given): the inhibition of growth at 1000 ppm in the experiment on Athelia rolfsii [1] and with Pythium [2] was 100% in each case. The inhibition of growth at 100 ppm in the experiment on Athelia rolfsii [3] worked out at 30.6%; with Pythium [4], 74.6%.
For the compound `CC(C)=CCCC(C)CCOP1(=S)OCc2ccccc2O1` (stereo not given), the results for the inhibition of growth at 1000 ppm in the experiment on Athelia rolfsii [1] and in the experiment with Pythium [2] were 100% and 96%, respectively. The inhibition of growth at 100 ppm came out at 36.6% with Athelia rolfsii [3] and 38.8% with Pythium [4].
The like results for `C=CCc1ccc(OP2(=S)OCc3cc(C(C)C)ccc3O2)c(OC)c1` (stereo not given) were, in that order, 71.2%, 83.9%, 18.8% and 22.9%.
The like results for `Cc1ccc(OP2(=S)OCc3ccccc3O2)c(C(C)C)c1` (stereo not given) were, in that order, 83.3%, 80.8%, 37.3% and 0%.
The corresponding values for `Cc1ccc(C(C)C)c(OP2(=S)OCc3ccccc3O2)c1` (stereo not given) are 99.8%, 100%, 27.7% and 45.2%.
In the case of `Cc1ccc(C(C)C)c(OP2(=S)OCc3ccccc3O2)c1Cl` (stereo not given), the inhibition of growth at 1000 ppm in the experiment on Athelia rolfsii [1] turned out to be 85.5%; in the experiment with Pythium [2], 97.4%. Further, the inhibition of growth at 100 ppm amounted to 12.3% in the experiment with Athelia rolfsii [3] and 27.9% in the experiment on Pythium [4].
The corresponding values for `C=CCc1ccc(OP2(=S)OCc3ccccc3O2)c(OC)c1` (stereo not given) are 100%, 87.4%, 25.5% and 28.6%.
The corresponding values for `O=P1(Oc2ccccc2)OCc2ccccc2O1` (stereo not given) are 88.7%, 100%, 2.1% and 76%.
The corresponding values for `S=P1(OCCc2ccccc2)OCc2ccccc2O1` (stereo not given) are 100%, 100%, 81.6% and 70.1%.
Consider `CCCCCCCOP1(=S)OCc2ccccc2O1` (stereo not given), for which the inhibition of growth at 1000 ppm with Athelia rolfsii [1] and in the experiment on Pythium [2] was 100% each time. The values for the inhibition of growth at 100 ppm with Athelia rolfsii [3] and with Pythium [4] were 52.6% and 42.4%, respectively.
As for `CCCCCCCCCCCOP1(=S)OCc2ccccc2O1` (stereo not given), the inhibition of growth at 1000 ppm in the experiment with Athelia rolfsii [1] was determined as 88.1%; in the experiment on Pythium [2] it was 100%. The results for the inhibition of growth at 100 ppm in the experiment with Athelia rolfsii [3] and with Pythium [4] were 25% and 0%, respectively.
The corresponding values for `CCCCCCCCCCCCCOP1(=S)OCc2ccccc2O1` (stereo not given) are 100%, 100%, 3.1% and 6.3%.
The like results for `CCCCCCCCCCCCCCCOP1(=S)OCc2ccccc2O1` (stereo not given) were, in that order, 32.3%, 86%, 6% and 24.9%.
Regarding `CCc1ccc2c(c1)COP(=S)(OC)O2` (stereo not given), the inhibition of growth at 50 ppm in the experiment on Athelia rolfsii [5] came to 92.4%; with Pythium [8] it was 64.4%. For the same compound, the inhibition of growth at 10 ppm is 1.9% in the experiment on Pythium [6] and 24.6% in the experiment with Athelia rolfsii [7]. Besides, the figures for the inhibition of growth at 1000 ppm in the experiment with Athelia rolfsii [1] and in the experiment on Pythium [2] were 100% and 96%, respectively. Moreover, the inhibition of growth at 100 ppm in the experiment on Athelia rolfsii [3] was found to be 100%; with Pythium [4], 91.1%.
Take `CCc1ccc2c(c1)COP(=O)(Oc1ccccc1)O2` (stereo not given): the inhibition of growth at 50 ppm in the experiment with Athelia rolfsii [5] worked out at 57.6%; with Pythium [8] it was 78.6%. The inhibition of growth at 10 ppm in the experiment on Pythium [6] amounted to 38.5%; with Athelia rolfsii [7], 26.6%. Besides, the inhibition of growth at 1000 ppm in the experiment with Athelia rolfsii [1] came out at 100%; in the experiment with Pythium [2], 98.7%. In addition, the inhibition of growth at 100 ppm in the experiment with Athelia rolfsii [3] came to 100%; in the experiment with Pythium [4] it was 89.1%.
Consider `CCc1ccc2c(c1)COP(=S)(Oc1ccc(C)cc1C(C)C)O2` (stereo not given), for which the inhibition of growth at 1000 ppm in the experiment with Athelia rolfsii [1] and with Pythium [2] was 100% throughout. The inhibition of growth at 100 ppm with Athelia rolfsii [3] was determined as 88.6%; in the experiment with Pythium [4] it was 49.5%.
As for `CCc1ccc2c(c1)COP(=S)(Oc1cc(C)ccc1C(C)C)O2` (stereo not given), the inhibition of growth at 1000 ppm amounted to 100% in the experiment on Athelia rolfsii [1] and 96.8% in the experiment with Pythium [2]. In addition, the inhibition of growth at 100 ppm with Athelia rolfsii [3] was 30.4%; with Pythium [4] it was 41.7%.
The corresponding values for `CCc1ccc2c(c1)COP(=S)(OCCc1ccccc1)O2` (stereo not given) are 100%, 100%, 57% and 95.4%.
`COP1(=S)OCc2cc(C(C)C)ccc2O1` (stereo not given): the inhibition of growth at 50 ppm with Athelia rolfsii [5] was found to be 92.5%; in the experiment with Pythium [8], 50%. For the same compound, the inhibition of growth at 10 ppm in the experiment with Pythium [6] came to 0%; in the experiment with Athelia rolfsii [7], 62%. The inhibition of growth at 1000 ppm was 100% in the experiment on Athelia rolfsii [1] and 82.6% in the experiment with Pythium [2]. For the same compound, the inhibition of growth at 100 ppm turned out to be 96.9% with Athelia rolfsii [3] and 71.1% in the experiment with Pythium [4].
Turning to `Cc1ccc(OP2(=S)OCc3cc(C(C)C)ccc3O2)c(C(C)C)c1` (stereo not given), the results for the inhibition of growth at 1000 ppm in the experiment on Athelia rolfsii [1] and in the experiment with Pythium [2] were 71.3% and 85.9%, respectively. For the same compound, the inhibition of growth at 100 ppm with Athelia rolfsii [3] worked out at 62.5%; in the experiment with Pythium [4], 26.8%.
The corresponding values for `Cc1ccc(C(C)C)c(OP2(=S)OCc3cc(C(C)C)ccc3O2)c1` (stereo not given) are 84.6%, 85.9%, 61.9% and 33.8%.
The like results for `COP1(=S)OCc2ccccc2O1` (stereo not given) [SALITHION] were, in that order, 100%, 100%, 60.7% and 74.8%.
